The NIST ThermoML archive (doi:10.1007/s10765-008-0444-7)

Legend:
[1] = 101.3 kPa, Liquid; for viscosity: Capillary tube (Ostwald / Ubbelohde) method; for mass density: Pycnometric method
[2] = xn = mol fraction of the nth substance listed; settings: 101 kPa, Liquid; for viscosity: Capillary tube (Ostwald / Ubbelohde) method; for mass density: Pycnometric method

Brc1ccccc1 [bromobenzene]
[1]
Settings	mass density [kg/m3]	viscosity [mPa·s]
293 K	1497	1.164
303 K	1483	0.9844
313 K	1467	0.8786

Brc1ccccc1 [bromobenzene] + CO
[2]
Settings	mass density, 293 K [kg/m3]	mass density, 303 K [kg/m3]	mass density, 313 K [kg/m3]	viscosity, 293 K [mPa·s]	viscosity, 303 K [mPa·s]	viscosity, 313 K [mPa·s]
x2 = 0	1497	1483	1467	1.164	0.9844	0.8786
x2 = 0.3528	1381	1367	1352	1.124	0.9306	0.8142
x2 = 0.5504	1280	1267	1253	1.008	0.8356	0.7399
x2 = 0.6775	1192	1179	1166	0.8873	0.742	0.6444
x2 = 0.7657	1114	1102	1089	0.8144	0.6962	0.6019
x2 = 0.8305	1045	1033	1021	0.7619	0.6467	0.5686
x2 = 0.8802	983	972.1	960.7	0.7235	0.617	0.5451
x2 = 0.9195	927.6	917.2	906.4	0.686	0.5891	0.513
x2 = 0.9552	871.4	861.5	851.1	0.657	0.5651	0.49
x2 = 0.9778	832.3	822.8	812.9	0.6312	0.5344	0.4773

Clc1ccccc1 [chlorobenzene]
[1]
Settings	mass density [kg/m3]	viscosity [mPa·s]
293 K	1105.8	0.8432
303 K	1095	0.721
313 K	1082	0.6247

Clc1ccccc1 [chlorobenzene] + CO
[2]
Settings	mass density, 293 K [kg/m3]	mass density, 303 K [kg/m3]	mass density, 313 K [kg/m3]	viscosity, 293 K [mPa·s]	viscosity, 303 K [mPa·s]	viscosity, 313 K [mPa·s]
x2 = 0	1105.8	1095	1082	0.8432	0.721	0.6247
x2 = 0.2808	1066.5	1056	1044	0.8312	0.7121	0.6157
x2 = 0.4676	1029.2	1019	1007	0.8209	0.6924	0.6041
x2 = 0.601	993.9	983.7	972.5	0.8018	0.6821	0.5832
x2 = 0.7009	960.5	950.4	939.4	0.7699	0.6572	0.5569
x2 = 0.7783	928.8	918.9	908.1	0.7256	0.6093	0.5296
x2 = 0.8405	898.5	888.8	878.3	0.692	0.5828	0.51
x2 = 0.8913	869.7	860.1	849.9	0.6766	0.5672	0.4961
x2 = 0.9335	842.3	832.9	822.9	0.6424	0.5401	0.4701
x2 = 0.9693	816.2	806.8	797.1	0.6194	0.528	0.4591

CO [methanol]
[1]
Settings	mass density [kg/m3]	viscosity [mPa·s]
293 K	791.1	0.591
303 K	781.9	0.518
313 K	772.4	0.45

CO [methanol] + Brc1ccccc1
[2], x1 = 1
Settings	mass density [kg/m3]	viscosity [mPa·s]
293 K	791.1	0.591
303 K	781.9	0.518
313 K	772.4	0.45

CO [methanol] + Clc1ccccc1
[2], x1 = 1
Settings	mass density [kg/m3]	viscosity [mPa·s]
293 K	791.1	0.591
303 K	781.9	0.518
313 K	772.4	0.45
